Assay results: PMC6042085 (Proceedings of the National Academy of Sciences of the …, 2018)

Molecular target: T1, PriSLX (Saccharolobus solfataricus, UniProt Q97Z83+Q97ZS7)
T1 sequence (Q97Z83 1-330): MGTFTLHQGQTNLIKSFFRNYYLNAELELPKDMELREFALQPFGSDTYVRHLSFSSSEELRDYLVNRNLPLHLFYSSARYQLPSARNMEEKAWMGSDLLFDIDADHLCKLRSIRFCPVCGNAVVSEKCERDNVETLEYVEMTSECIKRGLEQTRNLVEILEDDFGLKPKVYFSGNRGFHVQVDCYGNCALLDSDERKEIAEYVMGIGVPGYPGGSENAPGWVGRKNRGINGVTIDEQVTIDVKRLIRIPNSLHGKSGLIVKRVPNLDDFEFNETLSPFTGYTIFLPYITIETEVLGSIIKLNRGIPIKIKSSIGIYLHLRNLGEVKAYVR
T1 sequence (Q97ZS7 1-154): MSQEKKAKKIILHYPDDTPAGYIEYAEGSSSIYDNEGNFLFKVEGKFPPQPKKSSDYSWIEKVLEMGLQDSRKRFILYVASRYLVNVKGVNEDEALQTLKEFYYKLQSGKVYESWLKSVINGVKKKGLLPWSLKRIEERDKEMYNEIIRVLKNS
T1 sequence (Q9UWW1 1-307 partner): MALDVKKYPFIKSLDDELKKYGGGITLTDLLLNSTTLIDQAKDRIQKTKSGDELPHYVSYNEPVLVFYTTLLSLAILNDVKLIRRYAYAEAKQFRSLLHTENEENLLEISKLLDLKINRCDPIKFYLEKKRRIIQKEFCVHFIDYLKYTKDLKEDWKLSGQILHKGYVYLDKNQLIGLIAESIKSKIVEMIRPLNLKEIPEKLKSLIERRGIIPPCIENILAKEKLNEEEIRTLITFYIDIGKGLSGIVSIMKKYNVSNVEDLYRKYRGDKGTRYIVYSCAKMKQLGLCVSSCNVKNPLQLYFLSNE
Experiment: primer synthesis, […]-labelled nucleotide, gel
Assay type: biochemical
Details: poly(dT) template; pH 6.0, 10 mM MnCl2, 10 µM ZnCl2, 75 °C

Nc1ncnc2c1ncn2[C@H]1C[C@H](O)[C@@H](COP(=O)(O)OP(=O)(O)OP(=O)(O)O)O1 [dATP]
primer synthesis, 32P-labelled nucleotide, gel: reactions with solely dATP as substrate primarily generate a lower yield
